Test results published in US20230277533A1, “THERAPEUTIC COMBINATIONS COMPRISING UBIQUITIN-SPECIFIC-PROCESSING PROTEASE 1 (USP1) INHIBITORS AND POLY (ADP-RIBOSE) POLYMERASE (PARP) INHIBITORS” (KSQ Therapeutics, Inc., priority 2020, published 2023).
Like-named read-outs stand apart in the source and are kept apart here.

Key:
Assay in all cases: Colony formation (CFU) assay
Type in all cases: cell-based
[1] = system: KU1919; details: Homo sapiens, KU-19-19; KU1919, bladder
Outline: (§1)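 Seeding density set per line for separated colonies over ~14 days; treatment medium with test agents or DMSO from day 8. Endpoint: crystal violet staining, acetic acid extraction, absorbance 565 nm. IC50 from a two-parameter Hill curve.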

[2] = system: SKOV3_BRCA1null; details: ovary
Outline: as §1

[3] = system: OVMANA; details: ovary
Outline: as §1

[4] = system: LNCAP; details: Homo sapiens, prostate
Outline: as §1

[5] = system: T226; details: T226, breast
Outline: as §1

[6] = system: TE14; details: TE14, esophagus
Outline: as §1

[7] = system: HS934T; details: melanoma
Outline: as §1

[8] = system: ES2; details: Homo sapiens, ES-2; ES2, ovary
Outline: as §1

[9] = system: NCIH1651; details: Homo sapiens, NCI-H1651; NCIH1651, lung
Outline: as §1

[10] = system: SCC15; details: Homo sapiens, SCC-15; SCC15, head and neck
Outline: as §1

[11] = system: YD38; details: YD38, head and neck
Outline: as §1

[12] = system: MDAMB231; details: Homo sapiens, MDA-MB-231; MDAMB231, breast
Outline: as §1

[13] = system: SNUC5; details: SNUC5, colon
Outline: as §1

[14] = system: KYSE270; details: Homo sapiens, KYSE-270; KYSE270, esophagus
Outline: as §1

[15] = system: T174; details: T174, breast
Outline: as §1

[16] = system: SNGM; details: uterus
Outline: as §1

[17] = system: U2OS; details: Homo sapiens, bone
Outline: as §1

[18] = system: KP3
Outline: as §1

[19] = system: NCIH1693; details: Homo sapiens, NCI-H1693; NCIH1693, lung
Outline: as §1

[20] = system: UWB1289; details: for sensitivity to single agents: UWB1.289, BRCA1 mutant ovarian cell line; for IC50: UWB1289, ovary
Outline: as §1

[21] = system: HCT15; details: Homo sapiens, HCT-15; HCT15, colon
Outline: as §1

[22] = system: UMUC3; details: Homo sapiens; UMUC3, bladder
Outline: as §1

[23] = system: SJSA1; details: Homo sapiens, SJSA-1; SJSA1, bone
Outline: as §1

[24] = system: TGBC1TKB; details: biliary tract
Outline: as §1

[25] = system: BT474; details: Homo sapiens, BT-474; BT474, breast
Outline: as §1

[26] = system: YKG1; details: Homo sapiens, YKG-1; YKG1, nervous system
Outline: as §1

[27] = system: KLE; details: Homo sapiens, uterus
Outline: as §1

[28] = system: CHAGOK1; details: Homo sapiens, ChaGo-K-1; CHAGOK1, lung
Outline: as §1

[29] = system: VMRCRCZ; details: kidney
Outline: as §1

[30] = system: OVK18; details: OVK18, ovary
Outline: as §1

[31] = system: OVSAHO; details: Homo sapiens, ovary
Outline: as §1

[32] = system: HS870T; details: bone
Outline: as §1

[33] = system: SNU407; details: SNU-407; SNU407, colon
Outline: as §1

[34] = system: VMRCRCW; details: kidney
Outline: as §1

[35] = system: HCC1569; details: Homo sapiens; HCC1569, breast
Outline: as §1

[36] = system: SNU668; details: SNU668, stomach
Outline: as §1

[37] = system: PECAPJ15; details: PECAPJ15, head and neck
Outline: as §1

[38] = system: HT115
Outline: as §1

Structure (SMILES) | IC50 [1] [nM] | IC50 [2] [nM] | IC50 [3] [nM] | IC50 [4] [nM] | IC50 [5] [nM] | IC50 [6] [nM] | IC50 [7] [nM] | IC50 [8] [nM] | IC50 [9] [nM] | IC50 [10] [nM] | IC50 [11] [nM] | IC50 [12] [nM] | IC50 [13] [nM] | IC50 [14] [nM] | IC50 [15] [nM] | IC50 [16] [nM] | IC50 [17] [nM] | IC50 [19] [nM] | sensitivity to single agents [20] | IC50 [20] [nM] | also measured
NC(=O)c1cccc2cn(-c3ccc([C@@H]4CCCNC4)cc3)nc12 [Niraparib, niraparib, reference compound] | 181 | 262 | > 300 | > 300 | > 300 | > 300 | > 300 | > 300 | 32.4 | > 300 | > 300 | > 300 | 92.4 | 16.9 | > 300 | > 300 | > 300 | > 300 | sensitive | 28.4 | IC50 ([18]; KP3, pancreas, read-out: IC50): > 300 nM; IC50 [21]: > 300 nM; IC50 [22]: > 300 nM; IC50 [23]: > 300 nM; IC50 [24]: > 300 nM; IC50 [25]: > 300 nM; IC50 [26]: > 300 nM; IC50 [27]: > 300 nM; IC50 [28]: > 300 nM; IC50 [29]: > 300 nM; IC50 [30]: > 300 nM; IC50 [31]: > 300 nM; IC50 [32]: > 300 nM; IC50 [33]: 72.8 nM; IC50 [34]: > 300 nM; IC50 [35]: 97.3 nM; IC50 [36]: > 300 nM; IC50 [37]: > 300 nM; IC50 ([38]; HT115): 15.6 nM
COc1ncnc(C2CC2)c1-c1ncc2cnn(Cc3ccc(-c4nc(C(F)(F)F)cn4C)cc3)c2n1 [Formula II, 6-(4-cyclopropyl-6-methoxypyrimidin-5-yl)-1-(4-(1-methyl-4-(trifluoromethyl)-1H-imidazol-2-yl)benzyl)-1H-pyrazolo[3,4-d]pyrimidine] | 25 | > 300 | > 300 | > 300 | > 300 | > 300 | > 300 | 27.5 | 85.7 | 28 | > 300 | > 300 | > 300 | > 300 | > 300 | > 300 | > 300 | 12.7 | sensitive | 22.3 | IC50 [18]: > 300 nM; IC50 [21]: > 300 nM; IC50 [22]: > 300 nM; IC50 [23]: > 300 nM; IC50 [24]: > 300 nM; IC50 [25]: > 300 nM; IC50 [26]: > 300 nM; IC50 [27]: > 300 nM; IC50 [28]: > 300 nM; IC50 [29]: > 300 nM; IC50 [30]: > 300 nM; IC50 [31]: > 300 nM; IC50 [32]: > 300 nM; IC50 [33]: > 300 nM; IC50 [34]: > 300 nM; IC50 [35]: > 300 nM; IC50 [36]: > 300 nM; IC50 [37]: > 300 nM; IC50 ([38]; HT115, colon, read-out: IC50): 150 nM
